PubChem BioAssay AID1918934 (Molecular Pharmacology Branch, DTP, NCI, 2023)

System: 292921-168-R-J2-PDC complex spheroid viability
Assay: Anticancer human tumor 292921-168-R-J2-PDC patient-derived pancreatic carcinoma cell line growth inhibition
Settings: for IC50: curve of first compound; for viability, T/C: stronger effect = lower value
Description: Multicellular complex tumor spheroid response to LSD1 Inhibitor Iadademstat in combination with a variety of drugs and investigational agents in selected tumor cell lines
The current study was undertaken to assess response to LSD1 inhibitors in combination with standard-of-care drugs and investigational agents in solid tumor complex spheroid models as well as in the K-562 leukemia. Complex spheroids include a stromal component modeled by human endothelial cells (HUVEC) and fibroblasts modeled by human mesenchymal stem cells (MSCs). The concentration ranges selected for each drug and investigational agent were based upon clinically achievable concentrations if the clinical Cmax of the agent was known.
Compounds. The drugs and investigational agents used in this study are listed on Table 1. All of the agents used, including staurosporine (NSC755774) and gemcitabine (NSC613327), were obtained from the Developmental Therapeutics Program, NCI. FDA-approved anticancer drugs are available from the NCI at http://dtp.nci.nih.gov/branches/dscb/oncology_drugset_explanation.html. Drugs and investigational agents were >95% pure by proton nuclear magnetic resonance (NMR) and liquid chromatography/mass spectrometry (LC/MS). Stock solutions were prepared at 400x in DMSO, stored at -70 degrees C, and diluted in fresh medium prior to their use. The final concentration of DMSO in cell culture wells never exceeded 0.25% (v/v). The FDA-approved anticancer drug set is available from the Developmental Therapeutics Program at https://dtp.cancer.gov/organization/dscb/obtaining/available_plates.htm. All drugs and investigational agents were tested over a range starting from a high concentration at or near the clinical Cmax and decreasing in half-log increments. If the clinical Cmax for an agent had not been determined, the highest concentration tested was 10 microM.
Cell Lines. The patient-derived cancer cell (PDC) lines: 292921-168-R-J2-PDC, K24384-001-R-PDC, and 521955-158-R2-J5-PDC pancreatic carcinomas, 556581-035-R-J1 ovarian carcinoma, 324938-238-R-J1-PDC, 855422-203-R-J1-PDC and 883617-216-R-J1-PDC urothelial bladder carcinomas, 743489-274-T-PDC renal cell carcinoma, 138582-R-J1 Merkel cell tumor, K60290-347-R-J1 and K57222-313-R-J1-PDC glioblastomas, 653999-131-R-J2-PDC, LG0703-F948-PDC, and 349418-098-R-PDC non-small cell lung carcinomas, 885512-296-R-J2-PDC, 171881-019-R-J1-PDC breast carcinomas and 186277-243-T-J2-PDC and 233499-124-R-J2-PDC colon carcinomas were obtained from the NCI Patient-Derived Models Repository (PDMR, https://pdmr.cancer.gov). The established cell lines NCI/ADR-RES (RRID:CVCL_14520 and OVCAR-5 (RRID:CVCL_1628) ovarian carcinomas, 786-O (RRID:CVCL_1051) and A498 (RRID:CVCL_A498) renal cell carcinoma, NCI-H211 (ATCC, cat. CRL-5824; RRID:CVCL_1529), NCI-H196 (ATCC, cat. CRL-5823, RRID:CVCL_1509), SW 1271 (ATCC, cat. CRL-2177, RRID:CVCL_1716) and NCI-H1876 (ATCC, cat. CRL-5902, RRID:CVCL_1503) small cell lung carcinomas, MDA-MB-231 (RRID:CVCL_0062) and MDA-MB-468 (RRID:CVCL_0419)breast carcinomas (10-12). Pooled donor human umbilical vein endothelial cells (HUVEC, Lonza, cat. CC-2519) and human mesenchymal stem cells (hMSC, Lonza, cat. PT-2501) were purchased from Lonza (Walkersville, MD).
Cell Culture. All cells were maintained in an incubator at 37 degrees C and 5% CO2 with 95% humidity. The PDC lines were cultured according to standard operating procedures established by the NCI PDMR (https://pdmr.cancer.gov). Briefly all PDCs were thawed and cultured in Matrigel-coated flasks prepared with a working solution of 1X Ham's F-12 nutrient mix, without supplementation (Invitrogen, Waltham, MA, cat. 11765054), 100 U/mL penicillin-streptomycin (Invitrogen, cat. 15140122), and 2.5% Matrigel (Corning Inc., Corning, NY, cat. 354248) for the first three passages. […]
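Also: seven day compound exposure before luminescent viability read.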
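For viability, T/C in this document: 100% = DMSO vehicle control wells.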

In the case of `COc1cc(C2c3cc4c(cc3C(OC3OC5COC(C)OC5C(O)C3O)C3COC(=O)C23)OCO4)cc(OC)c1O` (stereo not given) + NC1CC1c1ccc(-c2cccc(O)c2)cc1, the IC50 (second compound 0.1 µM) is reported as 42.7 nM, the IC50 (second compound 0.316 µM) is reported as 21.3 nM and the IC50 (second compound 1 µM) is reported as 21.4 nM. The IC50 (second compound 3.16 µM) was 13.7 nM, the IC50 (second compound 10 µM) was under 9.49 nM and the viability, T/C (second compound 0.1 µM, first compound 0.00949 µM) was 84.3%. The viability, T/C (second compound 0.1 µM, first compound 0.03 µM) was 58.9%, the viability, T/C (second compound 0.1 µM, first compound 0.0949 µM) was 30.1% and the viability, T/C (second compound 0.1 µM, first compound 0.3 µM) was 19.4%. It also gave a viability, T/C (second compound 0.1 µM, first compound 0.949 µM) of 7.22%, a viability, T/C (second compound 0.1 µM, first compound 3 µM) of 4.45% and a viability, T/C (second compound 0.316 µM, first compound 0.00949 µM) of 64.8%. The viability, T/C (second compound 0.316 µM, first compound 0.03 µM) was 44.4%, the viability, T/C (second compound 0.316 µM, first compound 0.0949 µM) was 25.7% and the viability, T/C (second compound 0.316 µM, first compound 0.3 µM) was 18.6%. The viability, T/C (second compound 0.316 µM, first compound 0.949 µM) was 8.04%, the viability, T/C (second compound 0.316 µM, first compound 3 µM) was 5.02% and the viability, T/C (second compound 1 µM, first compound 0.00949 µM) was 64.7%. It also gave a viability, T/C (second compound 1 µM, first compound 0.03 µM) of 43.3%, a viability, T/C (second compound 1 µM, first compound 0.0949 µM) of 27.4% and a viability, T/C (second compound 1 µM, first compound 0.3 µM) of 16.4%. For the same molecule, the viability, T/C (second compound 1 µM, first compound 0.949 µM) was 5.52%, the viability, T/C (second compound 1 µM, first compound 3 µM) was 4.94% and the viability, T/C (second compound 3.16 µM, first compound 0.00949 µM) was 54.8%. The viability, T/C (second compound 3.16 µM, first compound 0.03 µM) was 39.9%, the viability, T/C (second compound 3.16 µM, first compound 0.0949 µM) was 24.3% and the viability, T/C (second compound 3.16 µM, first compound 0.3 µM) was 15.2%. It also gave a viability, T/C (second compound 3.16 µM, first compound 0.949 µM) of 7.27%, a viability, T/C (second compound 3.16 µM, first compound 3 µM) of 3.74% and a viability, T/C (second compound 10 µM, first compound 0.00949 µM) of 44.7%. It also gave a viability, T/C (second compound 10 µM, first compound 0.03 µM) of 27.4%, a viability, T/C (second compound 10 µM, first compound 0.0949 µM) of 23% and a viability, T/C (second compound 10 µM, first compound 0.3 µM) of 17.1%. The viability, T/C (second compound 10 µM, first compound 0.949 µM) was 6.98% and the viability, T/C (second compound 10 µM, first compound 3 µM) was 5.53%.
For `CC(C)CC(NC(=O)C(Cc1ccccc1)NC(=O)c1cnccn1)B(O)O` (stereo not given) + NC1CCC(NC2CC2c2ccccc2)CC1, the IC50 (second compound 0.1 µM) was under 0.316 nM, the IC50 (second compound 0.316 µM) was under 0.316 nM and the IC50 (second compound 1 µM) was under 0.316 nM. For the same molecule, the IC50 (second compound 3.16 µM) was under 0.316 nM, the IC50 (second compound 10 µM) was under 0.316 nM and the viability, T/C (second compound 0.1 µM, first compound 0.000316 µM) was 16.3%. The viability, T/C (second compound 0.1 µM, first compound 0.001 µM) was 0.63%, the viability, T/C (second compound 0.1 µM, first compound 0.00316 µM) was 0.17% and the viability, T/C (second compound 0.1 µM, first compound 0.01 µM) was 0.16%. The viability, T/C (second compound 0.1 µM, first compound 0.0316 µM) was 0.11%, the viability, T/C (second compound 0.1 µM, first compound 0.1 µM) was 0.14% and the viability, T/C (second compound 0.316 µM, first compound 0.000316 µM) was 15.9%. The viability, T/C (second compound 0.316 µM, first compound 0.001 µM) was 0.67%, the viability, T/C (second compound 0.316 µM, first compound 0.00316 µM) was 0.21% and the viability, T/C (second compound 0.316 µM, first compound 0.01 µM) was 3.23%. It also gave a viability, T/C (second compound 0.316 µM, first compound 0.0316 µM) of 0.17%, a viability, T/C (second compound 0.316 µM, first compound 0.1 µM) of 0.19% and a viability, T/C (second compound 1 µM, first compound 0.000316 µM) of 16.1%. The viability, T/C (second compound 1 µM, first compound 0.001 µM) was 0.64%, the viability, T/C (second compound 1 µM, first compound 0.00316 µM) was 0.24% and the viability, T/C (second compound 1 µM, first compound 0.01 µM) was 0.12%. It also gave a viability, T/C (second compound 1 µM, first compound 0.0316 µM) of 0.26%, a viability, T/C (second compound 1 µM, first compound 0.1 µM) of 0.25% and a viability, T/C (second compound 3.16 µM, first compound 0.000316 µM) of 13.8%. The viability, T/C (second compound 3.16 µM, first compound 0.001 µM) was 0.62%, the viability, T/C (second compound 3.16 µM, first compound 0.00316 µM) was 0.17% and the viability, T/C (second compound 3.16 µM, first compound 0.01 µM) was 0.1%. For the same molecule, the viability, T/C (second compound 3.16 µM, first compound 0.0316 µM) was 0.08%, the viability, T/C (second compound 3.16 µM, first compound 0.1 µM) was 0.16% and the viability, T/C (second compound 10 µM, first compound 0.000316 µM) was 12.2%. The viability, T/C (second compound 10 µM, first compound 0.001 µM) was 0.55%, the viability, T/C (second compound 10 µM, first compound 0.00316 µM) was 0.22% and the viability, T/C (second compound 10 µM, first compound 0.01 µM) was 0.19%. For the same molecule, the viability, T/C (second compound 10 µM, first compound 0.0316 µM) was 0.14% and the viability, T/C (second compound 10 µM, first compound 0.1 µM) was 0.47%.
